Assay results reported in the NIST ThermoML archive (doi:10.1016/j.jct.2005.12.005).
± gives the expanded uncertainty stated by the source.

How the values were obtained:
[1] = refractive index (Na D-line) (dimensionless); conditions: 101.33 kPa, Liquid
[2] = 101 kPa, Liquid; for speed of sound: Sing-around technique in a fixed-path interferometer
[3] = refractive index (Na D-line) (dimensionless); xn = mol fraction of the nth substance listed; conditions: 101 kPa, Liquid
[4] = xn = mol fraction of the nth substance listed; conditions: 101 kPa, Liquid; for speed of sound: Sing-around technique in a fixed-path interferometer

Cc1ccccc1 [toluene]
Conditions	mass density, 298.15 K [kg/m3]	mass density, 303.15 K [kg/m3]	mass density, 308.15 K [kg/m3]	refractive index, 298.15 K	refractive index, 303.15 K	refractive index, 308.15 K	speed of sound, 298.15 K [m/s]	viscosity, 298.15 K [mPa·s]	viscosity, 303.15 K [mPa·s]	viscosity, 308.15 K [mPa·s]
[1]	–	–	–	1.4931 ± 0.0009	1.4902 ± 0.0009	1.4874 ± 0.0009	–	–	–	–
[2]	862.3 ± 0.5	857.6 ± 0.6	852.9 ± 0.6	–	–	–	1314 ± 5	0.559 ± 0.008	0.526 ± 0.007	0.497 ± 0.007

CC1CCCCC1 [methylcyclohexane]
Conditions	mass density, 298.15 K [kg/m3]	mass density, 303.15 K [kg/m3]	mass density, 308.15 K [kg/m3]	refractive index, 298.15 K	refractive index, 303.15 K	refractive index, 308.15 K	speed of sound, 298.15 K [m/s]	viscosity, 298.15 K [mPa·s]	viscosity, 303.15 K [mPa·s]	viscosity, 308.15 K [mPa·s]
[1]	–	–	–	1.4217 ± 0.001	1.4192 ± 0.001	1.4163 ± 0.001	–	–	–	–
[2]	765 ± 0.9	760.7 ± 0.9	756.3 ± 0.9	–	–	–	1217 ± 5	0.676 ± 0.009	0.631 ± 0.009	0.59 ± 0.008

COc1ccccc1 [anisole]
Conditions	mass density, 298.15 K [kg/m3]	mass density, 303.15 K [kg/m3]	mass density, 308.15 K [kg/m3]	refractive index, 298.15 K	refractive index, 303.15 K	refractive index, 308.15 K	speed of sound, 298.15 K [m/s]	viscosity, 298.15 K [mPa·s]	viscosity, 303.15 K [mPa·s]	viscosity, 308.15 K [mPa·s]
[1]	–	–	–	1.5136 ± 0.0025	1.5112 ± 0.0025	1.5088 ± 0.0025	–	–	–	–
[2]	989.2 ± 0.4	984.5 ± 0.4	979.8 ± 0.4	–	–	–	1410 ± 6	1.008 ± 0.013	0.929 ± 0.012	0.861 ± 0.012

Cc1cc(C)cc(C)c1 [1,3,5-trimethylbenzene] + CC1CCCCC1
Conditions	mass density, 298.15 K [kg/m3]	mass density, 303.15 K [kg/m3]	mass density, 308.15 K [kg/m3]	refractive index, 298.15 K	refractive index, 303.15 K	refractive index, 308.15 K	speed of sound, 298.15 K [m/s]	viscosity, 298.15 K [mPa·s]	viscosity, 303.15 K [mPa·s]	viscosity, 308.15 K [mPa·s]
[3], x2 = 0	–	–	–	1.496 ± 0.0025	1.4936 ± 0.0025	1.4913 ± 0.0025	–	–	–	–
[3], x2 = 0.1007	–	–	–	1.489 ± 0.0025	1.4865 ± 0.0025	1.4843 ± 0.0025	–	–	–	–
[3], x2 = 0.1993	–	–	–	1.4817 ± 0.0025	1.4809 ± 0.0025	1.4771 ± 0.0025	–	–	–	–
[3], x2 = 0.3035	–	–	–	1.474 ± 0.0025	1.473 ± 0.0025	1.4692 ± 0.0025	–	–	–	–
[3], x2 = 0.4063	–	–	–	1.4663 ± 0.0025	1.4647 ± 0.0025	1.4614 ± 0.0025	–	–	–	–
[3], x2 = 0.4974	–	–	–	1.4593 ± 0.0025	1.4565 ± 0.0025	1.4544 ± 0.0025	–	–	–	–
[3], x2 = 0.6085	–	–	–	1.4508 ± 0.0025	1.4529 ± 0.008	1.4459 ± 0.0025	–	–	–	–
[3], x2 = 0.7027	–	–	–	1.4436 ± 0.0025	1.4421 ± 0.0025	1.4386 ± 0.0025	–	–	–	–
[3], x2 = 0.7973	–	–	–	1.4363 ± 0.0025	1.4347 ± 0.0025	1.4312 ± 0.0025	–	–	–	–
[3], x2 = 0.902	–	–	–	1.4285 ± 0.0025	1.4265 ± 0.0025	1.4233 ± 0.0025	–	–	–	–
[4], x2 = 0	861.2 ± 1.1	857.1 ± 1.1	853 ± 1.1	–	–	–	1346 ± 6	0.667 ± 0.011	0.622 ± 0.01	0.586 ± 0.01
[4], x2 = 0.1007	851.6 ± 1.1	847.5 ± 1.1	843.3 ± 1.1	–	–	–	1328 ± 6	0.653 ± 0.011	0.612 ± 0.01	0.577 ± 0.01
[4], x2 = 0.1993	842 ± 1	837.9 ± 1	833.8 ± 1	–	–	–	1312 ± 6	0.638 ± 0.01	0.6 ± 0.01	0.569 ± 0.009
[4], x2 = 0.3035	832 ± 1	827.9 ± 1	823.7 ± 1	–	–	–	1295 ± 6	0.629 ± 0.01	0.592 ± 0.009	0.559 ± 0.009
[4], x2 = 0.4063	822 ± 0.9	817.9 ± 1	813.7 ± 1	–	–	–	1280 ± 5	0.622 ± 0.01	0.584 ± 0.009	0.553 ± 0.009
[4], x2 = 0.4974	813.1 ± 0.9	808.9 ± 0.9	804.8 ± 0.9	–	–	–	1267 ± 5	0.62 ± 0.009	0.603 ± 0.03	0.547 ± 0.009
[4], x2 = 0.6085	802.2 ± 0.9	798.1 ± 0.9	793.9 ± 0.9	–	–	–	1253 ± 5	0.621 ± 0.009	0.582 ± 0.009	0.548 ± 0.008
[4], x2 = 0.7027	793.1 ± 0.9	788.9 ± 0.9	784.7 ± 0.9	–	–	–	1244 ± 5	0.627 ± 0.009	0.588 ± 0.009	0.553 ± 0.008
[4], x2 = 0.7973	784 ± 0.9	779.7 ± 0.9	775.5 ± 0.9	–	–	–	1235 ± 5	0.638 ± 0.009	0.598 ± 0.009	0.566 ± 0.008
[4], x2 = 0.902	774.1 ± 0.9	769.8 ± 0.9	765.6 ± 0.9	–	–	–	1225 ± 5	0.654 ± 0.009	0.622 ± 0.009	0.575 ± 0.008

Cc1ccc(C)cc1 [1,4-dimethylbenzene] + CC1CCCCC1
x2 = 0
Conditions	mass density, 298.15 K [kg/m3]	mass density, 303.15 K [kg/m3]	mass density, 308.15 K [kg/m3]	refractive index, 298.15 K	refractive index, 303.15 K	refractive index, 308.15 K	speed of sound, 298.15 K [m/s]	viscosity, 298.15 K [mPa·s]	viscosity, 303.15 K [mPa·s]	viscosity, 308.15 K [mPa·s]
[3]	–	–	–	1.4926 ± 0.001	1.4893 ± 0.001	1.4867 ± 0.001	–	–	–	–
[4]	856.7 ± 0.9	852.3 ± 0.9	848 ± 0.9	–	–	–	1326 ± 6	0.611 ± 0.009	0.572 ± 0.009	0.54 ± 0.008
